Test results taken from PubChem BioAssay (NCI).
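Five concentrations, 48 hours, 96-well plates. The concentration for full growth arrest is given as TGI.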 Where a SMILES comes first, the peptide text is derived from it. Side-chain parts run from the residue outwards. The star is where a group is joined. Cbz = O=C(OCc1ccccc1)*; Boc = CC(C)(C)OC(=O)*

What was measured:
Experiment in all cases: NCI anticancer screen, dose series, 48 h
[1] = test system: SF-295 CNS
[2] = test system: TK-10 renal
[3] = test system: IGROV1 ovarian
[4] = test system: T-47D breast
[5] = test system: OVCAR-8 ovarian
[6] = test system: NCI-H226 lung
[7] = test system: MALME-3M melanoma
[8] = test system: SNB-19 CNS
[9] = test system: SN12C renal

Compound	TGI [1] [µM]	TGI [2] [µM]	TGI [3] [µM]	TGI [4] [µM]	TGI [5] [µM]	TGI [6] [µM]	TGI [7] [µM]	TGI [8] [µM]	TGI [9] [µM]
CCCCCCCCCCOC1C(C(C)OCCCN(C)C)OC2OC3(CCCCC3)OC21 (stereo not drawn)	32.7	38.6	28.1	35.7	34.6	38.1	29.5	25.5	30.3
CN(C)C(=O)CO/N=C1/C(c2c(O)[nH]c3ccccc23)=Nc2ccccc21	> 100	> 100	> 100	> 100	> 100	> 100	> 100	> 100	> 100
CN1CCN(CCCCNc2cc3c4ccccc4c(NCCCCN4CCN(C)CC4)cc3c3ccccc23)CC1	3.77	18.4	5.52	84.2	10.2	45.4	5.09	12.5	9.27
C[N+](C)(N)Cc1csc(-c2ccc(Cl)cc2)n1	> 100	> 100	> 100	> 100	> 100	> 100	> 100	> 100	> 100
FC(F)(F)c1nc2cc(SSc3cc4nc(C(F)(F)F)[nH]c4cc3Cl)c(Cl)cc2[nH]1	> 100	> 100	> 100		> 100	> 100	> 100	> 100	> 100
CC1(C)C(C(=O)OC(C#N)c2cccc(OCC(=O)OCc3ccccc3)c2)C1(C)C (stereo not drawn)	> 100	> 100	> 100	> 100	> 100	> 100	> 100	> 100	> 100
COc1cc(C(c2cc(OC)c(OC)c(OC)c2)N2C(=O)CCC2C(=O)O)cc(OC)c1OC (stereo not drawn)	> 100		> 100	> 100	> 100	> 100	> 100	> 100	> 100
CN(c1ccccc1Cl)S(=O)(=O)c1ccccc1	> 100	> 100	> 100		> 100	> 100	> 100	> 100	> 100
CCCCCCCCCCCCCCCCCCNC(=S)/N=C/c1c(O)cc(C)oc1=O	64.7	35.9	55.8	> 100	63.4	> 100		52.1	> 100
CC(C)CC(NC(=O)OCc1ccccc1)C(=O)NCCCCC(NC(=O)C(CCCCNC(=O)C(CC(C)C)NC(=O)OCc1ccccc1)NC(=O)C(CCCCNC(=O)C(CC(C)C)NC(=O)OCc1ccccc1)NC(=O)C(CCCCNC(=O)C(CC(C)C)NC(=O)OCc1ccccc1)NC(=O)OC(C)(C)C)C(=O)O (stereo not drawn) (Boc-K([Leu-Cbz])K([Leu-Cbz])K([Leu-Cbz])K([Leu-Cbz])-OH; configuration not given here)		> 25	> 25	> 25	> 25	> 25	> 25	> 25	> 25
CN1CCN(c2ccc3nc(-c4ccc5nc(-c6ccc(N(C)CCCl)cc6)[nH]c5c4)[nH]c3c2)CC1	11.2	9.77	0.391		1.53	5.2	0.41	1.01	1.13
